# Results reported in patent US20220000870A1, “TREATMENT OF CANCER” (MingSight Pharmaceuticals, Inc., priority 2016, published 2022).
# How the values were obtained:
# TMD8 cells [1] = assay: Mouse xenograph model of DLBCL; assay type: in vivo, SCID mice
# Method: To test the efficacy of Compound A in vivo, TMD8 cells were grown and subcutaneously injected into SCID mice. Large scale suspension culture of TMD8 cells was performed in T250 flasks, where cells were expanded weekly. Animals (n=24) were inoculated with 10×10^6 cells (10×10^6 cells in 100 μL volume of 50% Matrigel®) subcutaneously in the animal's right flank.
# HBL1 cells [2] = assay: IL-6 assay (ELISA of supernatant); assay type: cell-based; conditions: CD79 mutant, 48 hours, data not shown
# TMD8 cells [3] = assay: IL-6 assay (ELISA of supernatant); assay type: cell-based; conditions: for Inhibition of IL-6 production: TMD8 cells, CD79 mutant, 48 hours
# Method: (§1) TMD8 cells were grown in MEM media supplemented with 10% fetal calf serum (FCS), non-essential vitamin mix, and penicillin-streptomycin antibiotics (pen-strep). HBL1 cells were grown in RPMI-1640 media supplemented with 10% FCS and pen-strep. OCI-Ly3 cells were grown in DMEM media with 15% FCS, non-essential vitamin mix, pen-strep, and 25 mM HEPES buffer. Cells were maintained in suspension culture, fed twice weekly, and split 1:3 approximately every two weeks (TMD8, OCI-Ly3) or weekly (HBL1).
# (§2) Cells were harvested via centrifugation and resuspended twice to rinse the media of any IL-6. Cells were then plated in 96 well plates at 5×10^5 cells per well and exposed to increasing concentrations of Compound A, sotrastaurin, or media containing 0.1% DMSO (negative control). For each cell type, experiments were performed in the media used for growth and maintenance. Cells were allowed to grow for 48 hours after plating in the presence of inhibitors. Following compound exposure, cells were pelleted in the 96 well plate, supernatant was removed, and the concentration of IL-6 in the supernatant was determined using R&D Systems Haman IL-6 Quantikine® ELISA Kit (D6050) according to manufacturer's instructions.
# OCI-Ly3 cells [4] = assay: IL-6 assay (ELISA of supernatant); assay type: cell-based; conditions: OCI-Ly3 cells lacking activating CD79 mutations, 48 hours
# Method: as §1, §2
# Human PKC delta = Human PKC delta (Homo sapiens, UniProt Q05655); assay: Inhibition of PKC isoforms, in vitro assay; assay type: biochemical
# From the text: The methods for these determinations have been described (Grant, et al. 2010, Eur J Pharmacol. 627:16-25).
# TMD8 cells [5] = assay: Cell proliferation and survival assay (MTT); assay type: cell-based; conditions: for Inhibition of cell proliferation and survival: TMD8 cells, MTT, 96 hours
# Method: (§3) TMD8 cells were grown in MEM media supplemented with 10% fetal calf serum (FCS), non-essential vitamin mix, and penicillin-streptomycin antibiotics (pen-strep). HBL1 cells were grown in RPMI-1640 media supplemented with 10% FCS and pen-strep. OCI-Ly3 cells were grown in DMEM media with 15% FCS, non-essential vitamin mix, pen-strep, and 25 mM HEPES buffer. Cells were maintained in suspension culture, fed twice weekly, and split 1:3 approximately every two weeks (TMD8, OCI-Ly3) or weekly (HBL1). Cells were cultured and maintained as described above, with cells always fed on the day prior to assay. Proliferation and survival of cells was quantified using an MTT assay kit according to manufacturer's instructions (Cell Proliferation Kit 1, Roche Diagnostics, Cat. No. 11 465 007 001). Experiments were performed in the same media used by each cell type for growth and maintenance. Cells (5×10^4) were plated in 96 well plates and allowed to grow for 96 hours in the presence of inhibitors. After the exposure period was completed, MTT reagent was added for 3-4 hours. The MTT solubilization reagent was then added to stop the reaction and cells were incubated overnight at 37° C. The plate read the next day according to the kit instructions.
# OCI-Ly3 cells [6] = assay: Cell proliferation and survival assay (MTT); assay type: cell-based; conditions: 96 hours
# Method: as §3
# circulating lymphocytes = assay: Peripheral lymphocyte levels, multiple ascending dose study; assay type: in vivo, human; conditions: healthy humans, 50, 100, 150, 200 mg BID, 14 days
# HBL1 cells [7] = assay: Cell proliferation and survival assay (MTT); assay type: cell-based; conditions: 96 hours, data not shown
# [8] = 120 mg/kg BID, SCID mice with TMD8 tumors
# Chain of Human PKC delta (Q05655 whole entry, canonical isoform): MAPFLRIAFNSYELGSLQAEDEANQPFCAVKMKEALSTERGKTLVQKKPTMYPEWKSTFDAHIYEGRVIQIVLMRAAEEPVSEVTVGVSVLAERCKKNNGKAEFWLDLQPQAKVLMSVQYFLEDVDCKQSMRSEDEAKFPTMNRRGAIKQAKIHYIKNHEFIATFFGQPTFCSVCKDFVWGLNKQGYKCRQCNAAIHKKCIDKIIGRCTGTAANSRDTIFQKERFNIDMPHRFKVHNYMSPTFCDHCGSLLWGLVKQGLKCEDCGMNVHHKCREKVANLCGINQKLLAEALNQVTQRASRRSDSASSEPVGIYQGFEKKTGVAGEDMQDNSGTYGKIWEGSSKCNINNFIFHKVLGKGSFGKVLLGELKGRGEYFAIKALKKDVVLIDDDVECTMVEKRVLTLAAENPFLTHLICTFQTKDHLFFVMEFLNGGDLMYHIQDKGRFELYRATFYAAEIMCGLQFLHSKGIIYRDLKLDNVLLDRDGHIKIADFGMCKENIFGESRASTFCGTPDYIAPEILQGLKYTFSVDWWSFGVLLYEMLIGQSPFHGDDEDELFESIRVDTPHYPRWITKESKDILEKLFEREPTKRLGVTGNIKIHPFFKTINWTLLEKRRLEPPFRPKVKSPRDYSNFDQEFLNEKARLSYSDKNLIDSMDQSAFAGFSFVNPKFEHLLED
Mean weight of vehicle treated group greater than Compound A treated animals (TMD8 cells [1]; 120 mg/kg BID),Compound,Body weight change from day 24-28 (TMD8 cells [1]; [8]),"Body weight, first 10 days of treatment (TMD8 cells [1]; [8])","Tumor growth (in words) (TMD8 cells [1]; study days 20 to 28, 120 mg/kg BID)",Inhibition of IL-6 production (HBL1 cells [2]),Potency in IL-6 assay compared to sotrastaurin (TMD8 cells [3]),Inhibition of IL-6 production (TMD8 cells [3]),Inhibition of IL-6 production (OCI-Ly3 cells [4]),Inhibition of PKC delta (in words) (Human PKC delta),Potency in cell proliferation assay compared to sotrastaurin (TMD8 cells [5]),Inhibition of cell proliferation and survival (TMD8 cells [5]),Inhibition of cell proliferation and survival (OCI-Ly3 cells [6]),Number of circulating lymphocytes (circulating lymphocytes),Inhibition of cell proliferation and survival (HBL1 cells [7])
1.8 g,"Cc1ncc(F)c(Nc2n[nH]c3c2CN(C(=O)N2C[C@@H](C)N(CC4CCOCC4)C[C@@H]2C)C3(C)C)n1 [Compound A, 5-{[(2S,5R)-2,5-dimethyl-4-(tetrahydro-2H-pyran-4-ylmethyl)piperazin-1-yl]carbonyl}-N-(5-fluoro-2-methylpyrimidin-4-yl)-6,6-dimethyl-1,4,5,6-tetrahydropyrrolo[3,4-c]pyrazol-3-amine]",no increase in body weight,"steady, slow increase",no appreciable amounts of tumor growth,dose-dependent inhibition,slightly more potent,dose-dependent inhibition,not affected,does not inhibit PKC delta to any appreciable degree,modestly more potent,dose-dependent inhibition,not affected by either compound except at the highest doses tested,dose dependent increase,dose-dependent inhibition
,"CN1CCN(c2nc(C3=C(c4c[nH]c5ccccc45)C(=O)NC3=O)c3ccccc3n2)CC1 [sotrastaurin, reference compound]",,,,,,dose dependent inhibition,not affected,,,dose dependent inhibition,not affected by either compound except at the highest doses tested,,
